According to US20050054006A1, “Combinatorial fluorescent library based on the styryl scaffold” (New York University, priority 2003, published 2005):
Values joined by “and” are separate entries in the source; they are usually repeats but may differ in a detail not shown here. Equal values may be shown once.

Experiments:
[1] = Fluorescence excitation/emission of the styryl dye library compounds; type: physicochemical; conditions: EX/EM peak no. 1
[2] = test system: UACC-62 human melanoma cells; assay: Organelle localization in live cells by fluorescence microscopy; conditions: live UACC-62 cells, fluorescence microscope λex=405, 490, 570 nm; λem>510 nm

| Structure (SMILES) | EM(nm) [1] | EX(nm) [1] | LOCALIZATION [2] |
| --- | --- | --- | --- |
| O=[N+]([O-])c1ccccc1C=CC=Cc1cc[n+](C23CC4CC(CC(C4)C2)C3)cc1.[Br-] [Compound B36] | 520 nm | 420 nm | MITO |
| C[n+]1ccc(/C=C/c2cccc([N+](=O)[O-])c2)c2ccccc21.[I-] [Compound G21] | 670 nm | 450-550 nm | MITO |
| COc1cc(OC)c(OC)cc1C=Cc1cc[n+](C)c(-c2cc(C)ccn2)c1.[I-] [Compound J38] | 590 nm | 380-500 nm | MITO |
| Cc1cccc(/C=C/c2ccc(N(C)C)cc2)[n+]1C.[I-] [Compound L19] | 580 nm | 450 nm | MITO |
| COc1ccc2c(ccc(C=Cc3ccccc3Br)[n+]2C)c1.[I-] [Compound I3] | 640 nm | 480 nm | MITO |
| COc1ccc(C=Cc2ccc3ccccc3[n+]2C)cc1O.[I-] [Compound H15] | 610-620 nm | 420 nm | MITO |
| Cc1ccnc(-c2cc(C=CC=Cc3ccccc3)cc[n+]2C)c1.[I-] [Compound J35] | 580 nm | 340-420 nm | CYTO |
| Cc1cccc(C=Cc2ccc3ccccc3c2)[n+]1C.[I-] [Compound L33] | 500 nm | 360-470 nm | MITO |
| COc1ccc2c(ccc(C=Cc3ccc(N(C)C)c4ccccc34)[n+]2C)c1.[I-] [Compound I27] | 630-660 nm | 420 nm | NUCLEOLI |
| C[n+]1c(C=Cc2ccc3ccccc3c2)ccc2ccccc21.[I-] [Compound H33] | 620 nm | 340-460 nm | MITO and NUCLEI and CYTO and VESICLE |
| C[n+]1c(C=Cc2ccccc2[N+](=O)[O-])ccc2ccccc21.[I-] [Compound H20] | 620 nm |  | NUCLEOLI |
| C[n+]1c(C=Cc2ccccc2Br)ccc2ccccc21.[I-] [Compound H3] | 640 nm | 530 nm | MITO |
| C[n+]1ccc(C=Cc2ccc(OCc3ccccc3)c(OCc3ccccc3)c2)c2ccccc21.[I-] [Compound G12] | 590 nm | 420-460 nm | MITO and NUCLEOLI |
| C[n+]1c(C=Cc2ccc3c(c2)OCO3)ccc2ccccc21.[I-] [Compound H39] | 670 nm and 560 nm | 530 nm and 430(broad) nm | CYTO |
| CN(C)c1ccc(C=Cc2cccc[n+]2C)cc1.[I-] [Compound C19] | 580 nm | 460 (broad) nm | MITO |
| C[n+]1ccccc1C=Cc1ccc(OCc2ccccc2)c(OCc2ccccc2)c1.[I-] [Compound C12] | 520 nm | 390 (broad) nm | MITO? and ER? |
| COc1ccc2c(ccc(C=Cc3cccc(Br)c3)[n+]2C)c1.[I-] [Compound I4] | 620 nm | 400(broad) nm | GRANULE |
| C[n+]1c(C=Cc2c[nH]c3ccccc23)ccc2ccccc21.[I-] [Compound H24] | 560 nm | 400-500 nm | CYTO |
